Test results taken from patent US8853424B2 (Japan Science and Technology Agency, priority 2008, dated 2014).
Where two headings read alike, the source gives them in different places.

Key:
[1] = tested on: Truncated N-terminal huntington 150 Q-EGFP-Neuron 2a cells; assay: Measurement of x-Fold (polyglutamine aggregation inhibitory activity); type: cell-based
Experimental: In the present invention, the polyglutamine aggregation inhibitory activity (x-Fold) can be measured, for example, by the method described in the Example.
The number of the aggregated cells, and the total number of cells were counted by Array Scan V T1 (manufactured by Cellomics, Pittuburg, USA), and the ratio of the aggregated cells to the total number of cells was determined (x-Fold). […]

[2] = tested on: SOC (store operated calcium channel); assay: Measurement of SOC IC50 (thapsigargin store depletion, calcium re-addition, CHO cells); type: cell-based; conditions: read-out: SOC IC50
Experimental: The SOC (store operated calcium channel)-suppressive action can be measured by the method described in the Example and using, for example, FDSS 3000.
CHO cell culture medium was replaced with a BSS solution which is an extracellular fluidfree of calcium, the compound of the present invention was added 1 min later, and 1 μM thapsigargin was allowed to act thereon 2 min later to deplete intracellular calcium store. […]

[3] = target: T1, SOCE (ICRAC) reconstituted by STIM1 and Orail (CRACM1) (Homo sapiens, UniProt Q96D31); assay: ICRAC whole cell patch clamp in HEK293 cells forcibly expressing STIM1 and Orail (CRACM1); type: cell-based; conditions: inward current at −80 mV
T1 construct: expressed in transfected cells; host or cells: HEK293 cells
T1 sequence (Q96D31 whole entry): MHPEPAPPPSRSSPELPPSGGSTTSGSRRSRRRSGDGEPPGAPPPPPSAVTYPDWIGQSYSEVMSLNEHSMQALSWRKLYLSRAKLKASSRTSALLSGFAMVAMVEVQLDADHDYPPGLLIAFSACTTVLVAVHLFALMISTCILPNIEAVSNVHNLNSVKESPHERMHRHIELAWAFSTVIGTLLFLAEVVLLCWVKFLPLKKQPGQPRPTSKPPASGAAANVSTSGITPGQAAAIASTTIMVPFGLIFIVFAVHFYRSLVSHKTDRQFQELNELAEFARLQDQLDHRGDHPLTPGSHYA
From the text: FIG. 2 is a drawing showing an Icrac inhibitory effect of 163AE, and the vertical axis and the horizontal axis show the same as in FIG. 1.
The effects of 162AE (bis(3,3′-(phenylaminoethoxyboryl)benzyl)ether described in Example 8) and 163AE (bis(4,4′-(phenylaminoethoxyboryl)benzyl)ether described in Example 131) for ICRAC, whose molecular entity as one of SOCE has been clarified, were investigated using an electrophysiological method. STIM1 and Orail (CRACM1) were forcibly expressed in HEK293 cells, and whole cell records were taken by the Patch clamp technique. BAPTA (20 mM), which is a calcium chelator, and IP3 (20 μM) that depletes intracellular calcium store were added to a recording electrode internal solution (120 mM Cs-glutamate, 10 mM HEPES, 3 mM MgCl2), 10 mM calcium was added to an extracellular solution to facilitate observation of calcium electric current, and a ramp command from −150 mV to +150 mV was input at 0.5 Hz to obtain a current-voltage curve. For quantification of SOCE, the size of the inward current at −80 mV was used as an index. After the start of the whole cell recording, time was taken to sufficiently activate SOCE (ICRAC), and compounds 162AE and 163AE as inhibitors were administered to the cells. […]

transglutaminase (TGase) = assay: Measurement of TG (TGase inhibitory activity, monodansyl cadaverine / N,N-dimethylcasein fluorescence, FDSS 3000); type: biochemical
Procedure, shortened: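 Compound (1 μL of 10 mM stock) added to 0.1 mL reaction: 100 mM HEPES-NaOH pH 7.5, 1 mM CaCl2, 20 μM monodansyl cadaverine, 0.05 mg/mL N,N-dimethylcasein, 5 μg/mL TGase. Rate of fluorescence change at 340 nm measured; DMSO control set to 100; TG50 is the concentration halving activity.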

[4] = polyglutamine aggregation inhibitory activity, Table 1
[5] = ratio of aggregated cells to total number of cells, compound 20 μM, 20 hr, almost 1 without compound, smaller = stronger inhibition
[6] = Cricetulus griseus, CHO, CHO cells, 1 μM thapsigargin, 2 mM calcium chloride
[7] = Cricetulus griseus, CHO, Table 1
[8] = TGase activity with compound (10 mM, 1 μL in 0.1 ml enzyme reaction solution), DMSO control taken as 100
[9] = TGase inhibitory activity measurement, unit not given
[10] = polyglutamine aggregation, Truncated N-terminal huntington 150 Q-EGFP-Neuron 2a cells
[11] = CHO cells, 1 μM thapsigargin, 2 mM calcium chloride
[12] = TGase inhibitory activity value, Table 1

Compound | IC50 [2, 6] | IC50 [2, 7] | IC50 [3] | TGase activity remaining (% of DMSO control = 100) (transglutaminase (TGase); [8]) | TGase activity remaining (% of DMSO control = 100) (transglutaminase (TGase); [9]) | IC50 [2, 11] | TGase activity remaining (% of DMSO control = 100) (transglutaminase (TGase); [12]) | TGase activity remaining (% of DMSO control = 100) (transglutaminase (TGase); TGase inhibitory activity value, Table 1, listed as 2045) | TGase activity remaining (% of DMSO control = 100) (transglutaminase (TGase); TGase inhibitory activity value, Table 1, listed as 7020) | x-Fold [1, 4] | x-Fold [1, 5] | x-Fold [1, 10] | x-Fold ([1]; polyglutamine aggregation inhibitory activity, Table 1, listed as 2045) | x-Fold ([1]; polyglutamine aggregation inhibitory activity, Table 1, listed as 7020)
NCCOB(c1ccccc1)c1ccc(COCc2ccc(B(OCCN)c3ccccc3)cc2)cc1 [Example 131, bis((4,4′-phenylaminoethoxyboryl)benzyl)ether] | 300 nM | 300 nM | 170 nM | – | – | – | – | – | – | 1.1 | 1.1 | – | – | –
bis(4,4′-(phenylaminoethoxyboryl)phenyl)ether [Example 5] | – | – | – | −4 | – | 150 nM | −4 | – | – | 0.60 | 0.60 | – | – | –
NCCOB(c1ccccc1)c1cccc(COCc2cccc(B(OCCN)c3ccccc3)c2)c1 [Example 8, bis(3,3′-(phenylaminoethoxyboryl)benzyl)ether] | – | – | 86 nM | 24 | – | 200 nM | 24 | – | – | 1.1 | 1.1 | – | – | –
NCCC(N)C(=O)OB(c1ccccc1)c1ccccc1 (centres unmarked) [Example 263, diphenyl(2,4-diaminolactonate-O,N)borane] | 3000 nM | 3000 nM | – | 146 | – | – | – | 146 | – | – | 0.89 | – | 0.89 | –
NCCCC(N)C(=O)OB(c1ccccc1)c1ccccc1 (centres unmarked) [Example 308, diphenyl(ornithinate-O,N)borane] | 500 nM | 500 nM | – | 27 | – | – | – | – | 27 | – | 1.05 | – | – | 1.05
O=C1O[B-](c2ccccc2)(c2ccccc2)[NH2+]C1CO (centres unmarked) [Example 255, diphenyl(serinate-O,N)borane] | 500 nM | 500 nM | – | 113 | – | – | 113 | – | – | 0.94 | 0.94 | – | – | –
OCCCCB(O)c1ccccc1 [Example 114, 4-hydroxybutylphenylborinic acid] | 2000 nM | 2000 nM | – | 120 | – | – | 120 | – | – | 0.99 | 0.99 | – | – | –

Now from value to compound, other results behind:

IC50 [2, 6] | IC50 [2, 7] | IC50 [3] | TGase activity remaining (% of DMSO control = 100) (transglutaminase (TGase); [8]) | TGase activity remaining (% of DMSO control = 100) (transglutaminase (TGase); [9]) | IC50 [2, 11] | TGase activity remaining (% of DMSO control = 100) (transglutaminase (TGase); [12]) | TGase activity remaining (% of DMSO control = 100) (transglutaminase (TGase); TGase inhibitory activity value, Table 1, listed as 2045) | TGase activity remaining (% of DMSO control = 100) (transglutaminase (TGase); TGase inhibitory activity value, Table 1, listed as 7020) | Compound | x-Fold [1, 4] | x-Fold [1, 5] | x-Fold [1, 10] | x-Fold ([1]; polyglutamine aggregation inhibitory activity, Table 1, listed as 2045) | x-Fold ([1]; polyglutamine aggregation inhibitory activity, Table 1, listed as 7020)
– | – | – | 29 | 29 | 2000 nM | – | – | – | c1ccc(B(OCC2CCCN2)c2ccc(Oc3ccc(B(OCC4CCCN4)c4ccccc4)cc3)cc2)cc1 (centres unmarked) [Example 438, bis(4,4′-(phenyl-2-pyrrolidinemethoxyboryl)phenyl)ether] | – | 0.67 | 0.67 | – | –
– | – | – | 24 | 24 | 300 nM | – | – | – | c1ccc(B(OCC2CCCCN2)c2cccc(COCc3cccc(B(OCC4CCCCN4)c4ccccc4)c3)c2)cc1 (centres unmarked) [Example 463, bis(3,3′-(phenyl-2-piperidylmethoxyboryl)benzyl)ether] | – | 0.92 | 0.92 | – | –
– | – | – | 60 | 60 | 250 nM | – | – | – | c1ccc(B(OCc2ccccn2)c2cccc(COCc3cccc(B(OCc4ccccn4)c4ccccc4)c3)c2)cc1 [Example 467, bis(3,3′-(phenyl-2-pyridylmethoxyboryl)benzyl)ether] | – | 0.98 | 0.98 | – | –
– | – | – | 10 | – | 500 nM | 10 | – | – | CNCCOB(c1ccccc1)c1ccc(Oc2ccc(B(OCCNC)c3ccccc3)cc2)cc1 [Example 386, bis(4,4′-(phenyl-N-methylaminoethoxyboryl)phenyl)ether] | 0.98 | 0.98 | – | – | –
– | – | – | 54 | 54 | 1500 nM | – | – | – | NC(COB(c1ccccc1)c1ccc(COCc2ccc(B(OCC(N)Cc3ccccc3)c3ccccc3)cc2)cc1)Cc1ccccc1 (centres unmarked) [Example 479, bis(4,4′-(phenyl-2-benzyl-2-amino-ethoxyboryl)benzyl)ether] | – | 1.00 | 1.00 | – | –
